Ki data for 22 compounds are collected here from patent publication US8431567B2 (Abbott GmbH & Co. KG, priority 2006, dated 2013).

Molecules are shown by their SMILES. Where a name gives a salt, the structure may show the parent alone. A value given as a limit tells only on which side of the number the result lay.

The assay concerns the target T1, human vasopressin V1b receptor (Homo sapiens, UniProt P47901).
T1 construct: expressed in transfected cells; host or cells: CHO-K1 (cell line hV1b_3H2_CHO), membrane preparation
T1 sequence (P47901 1-424): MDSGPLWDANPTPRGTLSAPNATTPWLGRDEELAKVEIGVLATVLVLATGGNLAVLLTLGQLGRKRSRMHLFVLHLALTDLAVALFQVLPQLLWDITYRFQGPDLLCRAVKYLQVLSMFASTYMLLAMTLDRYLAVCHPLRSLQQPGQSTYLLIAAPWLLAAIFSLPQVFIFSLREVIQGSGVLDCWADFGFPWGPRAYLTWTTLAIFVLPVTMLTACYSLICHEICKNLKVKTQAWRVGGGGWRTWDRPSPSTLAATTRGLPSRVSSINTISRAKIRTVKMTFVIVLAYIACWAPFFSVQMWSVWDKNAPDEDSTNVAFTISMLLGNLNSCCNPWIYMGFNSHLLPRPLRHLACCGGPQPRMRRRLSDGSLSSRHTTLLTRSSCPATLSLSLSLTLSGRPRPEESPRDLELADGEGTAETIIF
The assay is described as follows: Vasopressin V1b receptor binding test. The conditions noted are these: membranes of CHO-K1 cells, displacement of 1.5 nM 3H-AVP. The method, then:
• Vasopressin V1b Receptor Binding Test: • Substances:
The test substances were dissolved at a concentration of 10^−2 M in DMSO and diluted further in DMSO to 5×10^−4 M to 5×10^−9 M. These DMSO solutions were diluted 1:10 with test buffer. The concentration of substance was again diluted 1:5 in the test preparation.
The membrane pellet was homogenized and centrifuged again as described, and then taken up in 50 mM Tris-HCl, pH 7.4, homogenized and, frozen in aliquots, stored at −190° C. in liquid nitrogen.
The incubation buffer was: 50 mM Tris, 10 mM MgCl2, 0.1% BSA, pH 7.4. […] The nonspecific binding was determined with 1 μM AVP (Bachem #H1780). All determinations were performed in triplicate. After incubation (60 minutes at room temperature), the free radioligand was filtered off by vacuum filtration (Skatron cell harvester 7000) on Whatman GF/B glass-fibre filter mats and the filters were transferred to scintillation vessels. Liquid scintillation measurement was performed in a Tricarb instrument, Model 2000 or 2200CA (Packard). Conversion of the measured cpm to dpm was performed with the aid of a standard quench series.
The binding parameters were calculated by nonlinear regression in SAS.
For the compounds according to the invention, the affinities for the human vasopressin receptor V1b were measured according to the above test and the affinity constant (Ki) was determined.

As to `CCOc1ccc(S(=O)(=O)N2C(=O)C(c3ccccc3OCC)(N3CCN(c4ccncc4)CC3)c3cc(C#N)ccc32)cc1` (racemic) [Example 89, (±)-5-Cyano-1-(4-ethoxy-benzenesulphonyl)-3-(2-ethoxyphenyl)-3-(4-pyridin-4-yl-piperazin-1-yl)-2,3-dihydro-1H-indol-2-one], the Ki – broadly, a dissociation constant, usually derived from enzyme kinetics or from competition with a known ligand – is 50 to 500 nM.

Take `COc1ccc(S(=O)(=O)N2C(=O)C(c3ccccc3OC)(N3CCN(c4ccncc4)CC3)c3cc(Cl)ccc32)c(OC)c1` (stereo not shown) [Example 3, 5-Chloro-1-(2,4-dimethoxy-benzenesulphonyl)-3-(2-methoxyphenyl)-3-(4-pyridin-4-yl-piperazin-1-yl)-1,3-dihydro-indol-2-one]: the Ki is less than 50 nM.

With `CCOc1ccccc1C1(N2CCN(c3cccnc3)CC2)C(=O)N(S(=O)(=O)c2ccc(OC)cc2OC)c2ccc(C#N)cc21` (stereo not shown) [Example 2, 5-Cyano-1-(2,4-dimethoxy-benzenesulphonyl)-3-(2-ethoxyphenyl)-3-(4-pyridin-3-yl-piperazin-1-yl)-2,3-dihydro-1H-indol-2-one], the Ki was in the range of 50 to 500 nM.

In turn, `CCOc1ccccc1C1(N2CCCN(c3ccncc3)CC2)C(=O)N(S(=O)(=O)c2ccc(OC)cc2OC)c2ccc(C#N)cc21` (stereo not shown) [Example 56, 5-Cyano-1-(2,4-dimethoxy-benzenesulphonyl)-3-(2-ethoxyphenyl)-3-(4-pyridin-4-yl-[1.4]diazepan-1-yl)-2,3-dihydro-1H-indol-2-one] came in with a Ki of 50 to 500 nM.

In turn, `CCOc1cc(OC)ccc1C1(N2CCN(c3ccnc(C(C)C)c3)CC2)C(=O)N(S(=O)(=O)c2ccc(OC)cc2OC)c2ccc(C#N)cc21` (stereo not shown) [Example 111, 5-Cyano-1-(2,4-dimethoxybenzenesulphonyl)-3-(2-ethoxy-4-methoxyphenyl)-3-[4-(2-isopropylpyridin-4-yl)-piperazin-1-yl]-2,3-dihydro-1H-indol-2-one×trifluoroacetic acid] showed a Ki of less than 50 nM.

On to `COc1ccc(S(=O)(=O)N2C(=O)C(c3cc(OC)ccc3OC)(N3CCN(c4ccncc4)CC3)c3cc(C#N)ccc32)cc1` (stereo not shown) [Example 63, 5-Cyano-3-(2,5-dimethoxyphenyl)-1-(4-methoxy-benzenesulphonyl)-3-(4-pyridin-4-yl-piperazin-1-yl)-2,3-dihydro-1H-indol-2-one], for which the inhibition constant Ki was less than 50 nM.

Consider `CCOc1cc(F)ccc1C1(N2CCN(c3ccncc3)CC2)C(=O)N(S(=O)(=O)c2ccc(OC)cc2OC)c2ccc(C#N)cc21` (stereo not shown) [Example 57, 5-Cyano-1-(2,4-dimethoxy-benzenesulphonyl)-3-(2-ethoxy-4-fluorophenyl)-3-(4-pyridin-4-yl-piperazin-1-yl)-2,3-dihydro-1H-indol-2-one], for which the Ki was less than 50 nM.

The compound `COc1ccc(S(=O)(=O)N2C(=O)C(c3cc(C)ccc3OC)(N3CCN(c4ccncc4)CC3)c3cc(C#N)ccc32)c(OC)c1` (racemic) [Example 67, (±)-5-Cyano-1-(2,4-dimethoxy-benzenesulphonyl)-3-(2-methoxy-5-methylphenyl)-3-(4-pyridin-4-yl-piperazin-1-yl)-2,3-dihydro-1H-indol-2-one×trifluoroacetic acid] came in with a Ki of less than 50 nM.

The compound `CCOc1ccccc1C1(N2CCN(c3ccncc3)CC2)C(=O)N(S(=O)(=O)c2ccc(C#N)cc2F)c2ccc(C#N)cc21` (racemic) [Example 68, (±)-5-Cyano-1-(4-cyano-2-fluoro-benzenesulphonyl)-3-(2-ethoxyphenyl)-3-(4-pyridin-4-yl-piperazin-1-yl)-2,3-dihydro-1H-indol-2-one] had a Ki of 50 to 500 nM.

The compound `COc1ccc(S(=O)(=O)N2C(=O)C(c3cc(F)ccc3OC)(N3CCN(c4ccncc4)CC3)c3cc(C#N)ccc32)c(OC)c1` (racemic) [Example 65, (±)-5-Cyano-1-(2,4-dimethoxy-benzenesulphonyl)-3-(5-fluoro-2-methoxyphenyl)-3-(4-pyridin-4-yl-piperazin-1-yl)-2,3-dihydro-1H-indol-2-one] registered a Ki of 50 to 500 nM.

Take `CCOc1ccccc1C1(N2CCN(c3ccncc3)CC2)C(=O)N(S(=O)(=O)c2cccc(N)c2)c2ccc(C#N)cc21` (stereo not shown) [Example 48, 5-Cyano-1-(3-amino-benzenesulphonyl)-3-(2-ethoxyphenyl)-3-(4-pyridin-4-yl-piperazin-1-yl)-2,3-dihydro-1H-indol-2-one]: the Ki fell in the range of 50 to 500 nM.

Compound `CCOc1ccccc1C1(N2CCN(c3ccnc(C)c3)CC2)C(=O)N(S(=O)(=O)c2ccc(OC)cc2OC)c2ccc(C#N)cc21` (stereo not shown) [Example 35, 5-Cyano-1-(2,4-dimethoxy-benzenesulphonyl)-3-(2-ethoxyphenyl)-3-[4-(2-methyl-pyridin-4-yl)-piperazin-1-yl]-2,3-dihydro-1H-indol-2-one] had a Ki of 50 to 500 nM.

Regarding `CCOc1ccc(OC)cc1C1(N2CCN(c3ccnc(C(C)C)c3)CC2)C(=O)N(S(=O)(=O)c2ccc(OC)cc2OC)c2ccc(C#N)cc21` (racemic) [Example 92, (±)-5-Cyano-1-(2,4-dimethoxy-benzenesulphonyl)-3-(2-ethoxy-5-methoxyphenyl)-3-[4-(2-isopropyl-pyridin-4-yl)-piperazin-1-yl]-2,3-dihydro-1H-indol-2-one], the Ki is less than 50 nM.

Compound `CCOc1ccccc1C1(N2CCN(C3CCN(C)CC3)CC2)C(=O)N(S(=O)(=O)c2ccc(OC)cc2OC)c2ccc(C#N)cc21` (racemic) [Example 76, (±)-5-Cyano-1-(2,4-dimethoxy-benzenesulphonyl)-3-(2-ethoxyphenyl)-3-[4-(1-methyl-piperidin-4-yl)-piperazin-1-yl]-2,3-dihydro-1H-indol-2-one] had a Ki of 50 to 500 nM.

Consider `COc1ccc(S(=O)(=O)N2C(=O)C(c3ccccc3Cl)(N3CCN(c4ccncc4)CC3)c3cc(Cl)ccc32)c(OC)c1` (stereo not shown) [Example 24, 5-Chloro-3-(2-chloro-phenyl)-1-(2,4-dimethoxy-benzenesulphonyl)-3-(4-pyridin-4-yl-piperazin-1-yl)-1,3-dihydro-indol-2-one], for which the Ki is less than 50 nM.

On to `COc1ccc(S(=O)(=O)N2C(=O)C(c3cccc(OC)c3OC)(N3CCN(c4ccncc4)CC3)c3cc(Cl)ccc32)c(OC)c1` (stereo not shown) [Example 31, 5-Chloro-1-(2,4-dimethoxy-benzenesulphonyl)-3-(2,3-dimethoxyphenyl)-3-(4-pyridin-4-yl-piperazin-1-yl)-1,3-dihydro-indol-2-one, HCl salt], for which the Ki is less than 50 nM.

`CCOc1ccc(OC)cc1C1(N2CCN(c3ccncc3)CC2)C(=O)N(S(=O)(=O)c2ccc(OC)cc2OC)c2ccc(C#N)cc21` (stereo not shown) [Example 55, 5-Cyano-1-(2,4-dimethoxy-benzenesulphonyl)-3-(2-ethoxy-5-methoxyphenyl)-3-(4-pyridin-4-yl-piperazin-1-yl)-2,3-dihydro-1H-indol-2-one] showed a Ki of less than 50 nM.

In turn, `COc1ccccc1C1(N2CCN(c3ccncc3)CC2)C(=O)N(S(=O)(=O)c2ccc(Cl)cc2)c2ccc(Cl)cc21` (stereo not shown) [Example 18, 5-Chloro-1-(4-chloro-benzenesulphonyl)-3-(2-methoxyphenyl)-3-(4-pyridin-4-yl-piperazin-1-yl)-1,3-dihydro-indol-2-one] gave a Ki of 50 to 500 nM.

`CCOc1ccc(C)cc1C1(N2CCN(c3ccncc3)CC2)C(=O)N(S(=O)(=O)c2ccc(OC)cc2OC)c2ccc(C#N)cc21` (racemic) [Example 101, (±)-5-Cyano-1-(2,4-dimethoxy-benzenesulphonyl)-3-(2-ethoxy-5-methylphenyl)-3-(4-pyridin-4-yl-piperazin-1-yl)-2,3-dihydro-1H-indol-2-one] showed a Ki of less than 50 nM.

The compound `CCOc1ccc(OC)cc1C1(N2CCN(c3ccnc(C)c3)CC2)C(=O)N(S(=O)(=O)c2ccc(OC)cc2OC)c2ccc(C#N)cc21` (single isomer, unassigned; (+)) [Example 106, (+)-5-Cyano-1-(2,4-dimethoxy-benzenesulphonyl)-3-(2-ethoxy-5-methoxyphenyl)-3-[4-(2-methyl-pyridin-4-yl)-piperazin-1-yl]-2,3-dihydro-1H-indol-2-one] had a Ki of less than 50 nM.

On to `COc1ccccc1C1(N2CCN(c3ccncc3)CC2)C(=O)N(S(=O)(=O)c2ccc(C#N)cc2)c2ccc(Cl)cc21` (stereo not shown) [Example 4, 4-[5-Chloro-3-(2-methoxyphenyl)-2-oxo-3-(4-pyridin-4-yl-piperazin-1-yl)-2,3-dihydro-indole-1-sulphonyl]-benzonitrile], for which the Ki was 50 to 500 nM.

With `CCOc1ccc(OC)cc1C1(N2CCN(C3CCNCC3)CC2)C(=O)N(S(=O)(=O)c2ccc(OC)cc2OC)c2ccc(C#N)cc21` (racemic) [Example 100, (±)-5-Cyano-1-(2,4-dimethoxy-benzenesulphonyl)-3-(2-ethoxy-5-methoxyphenyl)-3-(4-piperidin-4-yl-piperazin-1-yl)-2,3-dihydro-1H-indol-2-one hydrochloride], the Ki is less than 50 nM.
